The values below come from patent publication US20100159030A1, “METHODS FOR DETECTING AND MODULATING THE SENSITIVITY OF TUMOR CELLS TO ANTI-MITOTIC AGENTS AND FOR MODULATING TURMORGENICITY” (NewSouth Innovations Pty Limited, priority 2007, published 2010).

Like-named read-outs stand apart in the source and are kept apart here.

For assay [1], the system named is H460 cells. Description: Cell cycle analysis by flow cytometry (propidium iodide). The assay is classed as cell-based, Human. To be noted: 24 h. Here is the method:
The distribution of DNA content in βII or βIVb tubulin siRNA-transfected H460 cells was determined by flow cytometry. After 72 h transfection, transfected cells were exposed to vincristine at 5 nM or 40 nM concentrations for 24 h. On the day of analysis, both adherent and floating cells were harvested, washed with PBS and then stained with a solution containing 0.4% Triton® X-100 (Sigma), 50 μg/ml propidium iodide (Sigma), and 2 μg/ml DNase-free RNase (Roche, Indianapolis, Ind.) in the dark for 15 min at 37′C. DNA content was measured by a FACSCalibur flow cytometer (Becton Dickinson, San Diego, Calif.). The flow rate was <200 nuclei per second and 10,000 cells from each sample were analysed. Measurements were performed under the same instrumental settings. The CellQuest® program was used to quantitate the distribution of cells in each cell cycle phase: sub-G1 (apoptotic cells), G1, S and G2/M.
To determine whether βIII-tubulin silencing affects the cell cycle profiles, cell cycle analysis using flow cytometry was performed. Cell cycle analysis was determined by transfecting H460 cells with siRNA for 72 h and harvesting (adherent and suspension) cells 24 h after drug treatment. DNA content was stained for 15 min at 37° C. with a solution containing 0.4% Triton® X-100 (Sigma-Aldrich), 50 μg/ml propidium iodide (Sigma-Aldrich), and 2 μg/ml DNAse-free RNAse (Roche, Indianapolis, Ind.). The cells were then analyzed for cell cycle perturbation using a FACSCalibur (Becton-Dickinson, Franklin Lakes, N.J.). The CellQuest® program was used to quantitate the distribution of cells in each cell cycle phase: sub-G1(apoptotic cells), G1, S and G2/M.
In general terms: In flow cytometry, cells or beads pass a laser one at a time.

In assay [2] the test system is Calu-6 cells. Description: Immunofluorescent staining of microtubules (α-tubulin) after drug treatment. The class given is cell-based, Human. To be noted: 1 h, vs control. The protocol:
Transfected Calu-6 cells were grown on sterile chamber slides until 60-70% confluent. Cells were then treated with paclitaxel and vincristine for 1 h at 10 nM. Cells were fixed in methanol and processed for staining as previously described (Don et al. (2004) supra) with minor modifications. Fixed cells were stained with α-tubulin (1:400 in 5% FCS/PBS, Sigma) for 30 min followed by Cy2 anti-mouse fluorescent tagged antibody (1:1,000 in 5% FCS/PBS, GE Healthcare). Slides were mounted on a coverslip using DAPI II Counterstain (Vysis Inc., Downers Grove, Ill.). Slides were viewed using a Zeiss Axioplan 2 Immunofluorescence Microscope (Mannheim, Germany) with Image-Pro® Plus 4.1 software (Media Cybernetics, L.P., Silver Spring, Md.).
To assess the effects of βIII downregulation on microtubule organization, immunofluorescence staining was performed on transfected Calu-6 cells as follows. Briefly, siRNA transfected cells were plated in glass chamber slides and allowed to reach 70% confluence. Cells were then treated with 10 nM of paclitaxel or vincristine for 1 hour. Drug was then removed by washing cells with PBS and blocked in 10% FCS/PBS. For dual staining, cells were first labelled with an antibody to class III β-tubulin which was exposed to cells incubated at 37° C. for 30 minutes in a humidified chamber. Following washes in 0.1% Tween 20/PBS at room temperature, the slides were incubated with Cy3 anti-mouse fluorescent-tagged antibody (GE Healthcare) for 40 minutes in a humidified chamber in the dark at room temperature. Following incubation, the slides were washed again in 0.1% Tween 20/PBS. This was then followed by staining with α-tubulin and Cy2 anti-mouse fluorescent tagged antibody (GE Healthcare). Slides were mounted on a coverslip using DAPI II Counterstain (Vysis Inc., Downers Grove, Ill.). Immunofluorescence microscopy was performed and images were captured using a Sensicam Charged Coupled Device camera (PCO Imaging, Kelheim, Bavaria, Germany) and the Image-Pro® Plus 4.1 software (Media Cybernetics, L.P., Silver Spring, Md.).

For assay [3], the system named is CCRF-CEM Leukaemia cells. The class given is cell-based. To be noted: lowest resistant subline CEM/2ME2-3.6R only. The source says:
The tubulin-binding agent 2-methoxyestradiol (2ME2) binds to β-tubulin near the colchicine-binding site, inhibits microtubule polymerization, and induces mitotic arrest. CCRF-CEM Leukaemia cells that display increasing resistance to 2ME2 were selected, and four of the highly 2ME2 resistant leukaemia sublines were chosen for detailed analysis.

The test system of assay [4] is Calu-6 cells. Description: Drug-treated clonogenic assay on siRNA-transfected cells. The assay is classed as cell-based, Human. The protocol: (§1) Cells were transfected for 24 h and approximately 600 cells (for Calu-6) or 150 cells (for H460) were seeded into each well of a 6-well plate and allowed to attach for 4-6 h. The cell lines used in this study were not subject to prior drug selection, and are likely to represent intrinsic drug resistance observed in lung carcinoma.
(§2) Cells were then treated with increasing concentrations of various anti-mitotic drugs. Following a 3-day incubation at 37° C., the drug-containing medium was removed and replaced with fresh complete medium. Medium was changed at 3-4 day intervals for 7 to 10 days until visible colonies formed. […] Surviving colonies were simultaneously fixed and stained with 0.5% crystal violet in methanol, rinsed with water to remove excess stain and air-dried overnight.
(§3) The colonies in each well were manually counted, and the results were presented as surviving fraction according to the formula: surviving fraction was calculated as follows: colony number/(number of cells seeded×plating efficiency), where plating efficiency is equivalent to the colony number divided by the number of cells seeded in the drug-free medium. Dose-response curves were plotted for each drug-cell line combination and inhibitory dose (ID50) values were extrapolated from this curve using GraphPad Prism program (GraphPad Software, version 4, San Diego, Calif.). ID50 was defined as the concentration of the drug required to reduce the number of colonies in drug-treated wells to 50% of that of the relevant untreated control wells. The ID50 values were the means of at least four independent experiments.
(§4) To quantitate any change in drug sensitivity, drug treated clonogenic assays were performed. Twenty-four hours after siRNA transfection, cells were harvested and plated into 6-well plates for 6 h, prior to the addition of various drugs as indicated in the figure legends. After 72 h incubation, the drug-containing media was removed and replaced with complete growth media. Medium was changed every 3 days for 7 to 10 days until visible colonies formed. Colonies were simultaneously fixed and stained with 0.5% crystal violet in methanol, and manually counted. Individual stained colonies in each well were counted and the surviving fraction was calculated as follows: colony number/(number of cells seeded×plating efficiency), where plating efficiency equals the colony number divided by the number of cells seeded in drug-free media.

For assay [5], the system named is NSCLC H460 cells. The assay can be described thus: Drug-treated clonogenic assay (surviving fraction, ID50) on siRNA/shRNA-transfected cells. The class given is cell-based, Human. To be noted: for IC50: Homo sapiens, NCI-H460, Table 2, read-out: ID50 ± SEM; for RS (relative sensitivity): Table 2; for change in drug sensitivity (clonogenic survival): H460. The protocol:
as §1, §2, §3, §4

The mark [6] stands for this setting: class II β-tubulin siRNA knockdown vs controls.
Setting [7] is: class IVb β-tubulin siRNA knockdown vs controls.
The mark [8] stands for this setting: 27-mer βIII siRNA Sequence-8 H460 cells.
The mark [9] stands for this setting: 27-mer βIII siRNA Sequence-11 H460 cells.

As to `CC[C@]1(O)C[C@H]2CN(CCc3c([nH]c4ccccc34)[C@@](C(=O)OC)(c3cc4c(cc3OC)N(C=O)[C@H]3[C@@](O)(C(=O)OC)[C@H](OC(C)=O)[C@]5(CC)C=CCN6CC[C@]43[C@@H]65)C2)C1` [VCR, vincristine], the cell cycle profile result was “increase in the G2/M and sub-G1 populations” in assay [1] (βII siRNA transfectants, 5 nM); “greater G2/M accumulation” in assay [1] (βII siRNA transfectants, 40 nM); “increase in the G2/M and sub-G1 populations” in assay [1] (βIVb siRNA transfectants, 5 nM); “failed to undergo G2/M arrest” in assay [1] (βIVb siRNA transfectants, 40 nM). The microtubule morphology entry is “dramatic disruption of the microtubule cytoskeleton” in assay [2] (βII siRNA-transfected Calu-6, 10 nM drug); “extensive disruption of the microtubule cytoskeleton” in assay [2] (βIII siRNA-transfected Calu-6, 10 nM drug); “dramatic disruption of the microtubule cytoskeleton” in assay [2] (βIVb siRNA-transfected Calu-6, 10 nM drug). Further, the cross-resistance result in assay [3] was “cross-resistance”. The “change in drug sensitivity (clonogenic survival)” value is given as “significantly sensitized” in assay [4] (setting [6]); “hypersensitive” in assay [4] (setting [7]); “significantly sensitized” in assay [5] (setting [6]); “precipitous drop in surviving colonies” in assay [5] (setting [7]); “significant increase in sensitivity” in assay [5] (βIII-tubulin siRNA silencing vs controls). Further, the IC50 in assay [5] (setting [8]) was 1.68 ± 0.116 nM; in assay [5] (setting [9]), 2.95 ± 0.175 nM; in assay [5] (Ctrl-1 (27-mer control siRNA) H460 cells), 4.25 ± 0.18 nM; in assay [5] (mock-transfected H460 cells), 3.99 ± 0.158 nM. The “RS (relative sensitivity)” value is recorded as “(2.37, <0.0001***)” in assay [5] (setting [8]); “(1.34, 0.001**)” in assay [5] (setting [9]); “(0.94, NS)” in assay [5] (Ctrl-1 H460 cells).
